Patent US9139609B2, “C-4″ position substituted macrolide derivative” (priority 2011, dated 2015)
Converted amounts (≈) assume the structure as drawn.

Tests used:
Assay type in all cases: cell-based
[1] = system: Streptococcus pneumoniae ATCC700904; assay: In vitro antibacterial activity, microbroth dilution method (CLSI method), test bacterium C (erythromycin resistant); conditions: read-out: MIC (minimum inhibitory concentration), test bacterium C
Protocol: (§1) In vitro antibacterial activities of the compounds of the present invention against various test bacteria were measured according to the microbroth dilution method (CLSI method). Among them, the bacteria C, D and E are erythromycin resistant bacteria. The MIC values (minimum inhibitory concentration, μg/ml) for the test bacteria A and B are exemplified in Table 22.

[2] = system: Streptococcus pyogenes M808; assay: In vitro antibacterial activity, microbroth dilution method (CLSI method), test bacterium D (erythromycin resistant); conditions: read-out: MIC (minimum inhibitory concentration), test bacterium D
Protocol: as §1

[3] = system: Mycoplasma pneumoniae MSC04933; assay: In vitro antibacterial activity, microbroth dilution method (CLSI method), test bacterium E (erythromycin resistant); conditions: read-out: MIC (minimum inhibitory concentration), test bacterium E
Protocol: as §1

[4] = system: Haemophilus infuenzae ATCC43095; assay: In vitro antibacterial activity, microbroth dilution method (CLSI method), test bacterium A; conditions: read-out: MIC (minimum inhibitory concentration), test bacterium A
Protocol: as §1

[5] = system: Streptococcus pneumoniae ATCC49619; assay: In vitro antibacterial activity, microbroth dilution method (CLSI method), test bacterium B; conditions: read-out: MIC (minimum inhibitory concentration), test bacterium B
Protocol: as §1

Row | MIC [1] | MIC [2] | MIC [3] | MIC [4] | MIC [5] | SMILES
1 | 0.12 to 0.25 µg/mL (≈ 0.114 to 0.238 µM) | ≤ 2 µg/mL | ≤ 0.25 µg/mL |  |  | CC[C@H]1OC(=O)[C@H](C)[C@@H](O[C@H]2C[C@@](C)(OC)[C@@](O)(CN(C)CCN(C)C(C)(C)c3ccccc3OC)[C@H](C)O2)[C@H](C)[C@@H](O[C@@H]2O[C@H](C)C[C@H](N(C)C)[C@H]2O)[C@@](C)(OC(N)=O)C[C@@H](C)C(=O)[C@H](C)[C@H]2NC(=O)O[C@@]21C [Example 342]
2 | 0.12 to 0.25 µg/mL (≈ 0.115 to 0.239 µM) | ≤ 2 µg/mL | ≤ 0.25 µg/mL |  |  | CC[C@H]1OC(=O)[C@H](C)[C@@H](O[C@H]2C[C@@](C)(OC)[C@@](O)(CN(C)CCN(C)C(C)(C)c3ccccc3OC)[C@H](C)O2)[C@H](C)[C@@H](O[C@@H]2O[C@H](C)C[C@H](N(C)C)[C@H]2O)[C@@](C)(OC)C[C@@H](C)C(=O)[C@H](C)[C@H]2C(C#N)C(=O)O[C@@]21C (stereo partly shown) [Example 363]
3 | 0.12 to 0.25 µg/mL (≈ 0.111 to 0.232 µM) | 4 to 8 µg/mL (≈ 3.71 to 7.41 µM) |  | 4 µg/mL (≈ 3.71 µM) | 0.06 µg/mL (≈ 0.0556 µM) | CC[C@H]1OC(=O)[C@H](C)[C@@H](O[C@H]2C[C@@](C)(OC)[C@@](O)(CN(C)CCN(C(C)C)C(C)C)[C@H](C)O2)[C@H](C)[C@@H](O[C@@H]2O[C@H](C)C[C@H](N(C)C)[C@H]2O)[C@@](C)(OC)C[C@@H](C)C(=NO)[C@H](C)[C@H]2N(CCNS(C)(=O)=O)C(=O)O[C@]12C [Example 458]
4 | ≤ 0.06 µg/mL | ≤ 2 µg/mL | ≤ 0.25 µg/mL |  |  | CC[C@H]1OC(=O)[C@H](C)[C@@H](O[C@H]2C[C@@](C)(OC)[C@@](O)(CN(C)CCN(C)C)[C@H](C)O2)[C@H](C)[C@@H](O[C@@H]2O[C@H](C)C[C@H](N(C)C)[C@H]2O)[C@@](C)(OC)C[C@@H](C)C(=O)[C@H](C)[C@H]2C(SCCCn3cnc4c(N)ncnc43)C(=O)O[C@@]21C (stereo partly shown) [Example 364]
5 | 0.12 to 0.25 µg/mL (≈ 0.113 to 0.235 µM) | ≤ 2 µg/mL | ≤ 0.25 µg/mL |  |  | CC[C@H]1OC(=O)[C@H](C)[C@@H](O[C@H]2C[C@@](C)(OC)[C@@](O)(CN(C)CCN(C(C)C)C(C)C)[C@H](C)O2)[C@H](C)[C@@H](O[C@@H]2O[C@H](C)C[C@H](N(C)C)[C@H]2O)[C@@](C)(OC)C[C@@H](C)C(=O)[C@H](C)[C@H]2N(CCNS(C)(=O)=O)C(=O)O[C@]12C [Example 404]

More lines, now with the values behind:

Row | SMILES | MIC [1] | MIC [2] | MIC [3] | MIC [4] | MIC [5]
6 | CC[C@H]1OC(=O)[C@H](C)[C@@H](O[C@H]2C[C@@](C)(OC)[C@@](O)(CN(C)CCN(CC)CC)[C@H](C)O2)[C@H](C)[C@@H](O[C@@H]2O[C@H](C)C[C@H](N(C)C)[C@H]2O)[C@@](C)(OC)C[C@@H](C)C(=O)[C@H](C)[C@H]2NC(=O)O[C@@]21C [Example 299] | 0.12 to 0.25 µg/mL (≈ 0.131 to 0.273 µM) | ≥ 16 µg/mL | 0.5 to 1 µg/mL (≈ 0.546 to 1.09 µM) |  | 
7 | CC[C@H]1OC(=O)[C@H](C)[C@@H](O[C@H]2C[C@@](C)(OC)[C@@](O)(CN(C)CCN(CC)CC)[C@H](C)O2)[C@H](C)[C@@H](O[C@@H]2O[C@H](C)C[C@H](N(C)C)[C@H]2O)[C@@](C)(OC)C[C@@H](C)C(=NO)[C@H](C)[C@H]2N(CCNS(C)(=O)=O)C(=O)O[C@]12C [Example 334] | 0.12 to 0.25 µg/mL (≈ 0.114 to 0.238 µM) | 4 to 8 µg/mL (≈ 3.8 to 7.61 µM) | ≤ 0.25 µg/mL |  | 
8 | CC[C@H]1OC(=O)[C@H](C)[C@@H](O[C@H]2C[C@@](C)(OC)[C@@](O)(CN(C)CCN(C)C(C)(C)c3ccccc3OC)[C@H](C)O2)[C@H](C)[C@@H](O[C@@H]2O[C@H](C)C[C@H](N(C)C)[C@H]2O)[C@@]2(C)C[C@@H](C)C3(NCCN4C(=O)O[C@@]1(C)[C@H]4[C@H]3C)O2 [Example 341] | 0.12 to 0.25 µg/mL (≈ 0.116 to 0.242 µM) | ≤ 2 µg/mL | ≤ 0.25 µg/mL |  | 
9 | CC[C@H]1OC(=O)[C@H](C)[C@@H](O[C@H]2C[C@@](C)(OC)[C@@](O)(CN(C)CCN(C)C(C)(C)c3ccccc3OC)[C@H](C)O2)[C@H](C)[C@@H](O[C@@H]2O[C@H](C)C[C@H](N(C)C)[C@H]2O)[C@@](C)(OC)C[C@@H](C)[C@@H]2NCCN3C(=O)O[C@@]1(C)[C@H]3[C@@H]2C [Example 340] | 0.12 to 0.25 µg/mL (≈ 0.114 to 0.238 µM) | ≤ 2 µg/mL | ≤ 0.25 µg/mL |  | 
10 | CC[C@H]1OC(=O)[C@H](C)[C@@H](O[C@H]2C[C@@](C)(OC)[C@@](O)(CN(C)CCN(C)C(C)(C)c3ccccc3OC)[C@H](C)O2)[C@H](C)[C@@H](O[C@@H]2O[C@H](C)C[C@H](N(C)C)[C@H]2O)[C@@](C)(OC)C[C@@H](C)C2=NCCN3C(=O)O[C@@]1(C)[C@H]3[C@H]2C [Example 338] | 0.12 to 0.25 µg/mL (≈ 0.115 to 0.239 µM) | ≤ 2 µg/mL | ≤ 0.25 µg/mL |  | 
